test system: HCV genotype 1a replicon cell line; experiment: HCV Genotype 1a Replicon Assay; type: cell-based, hepatitis C virus; details: Hepatitis C virus, Huh7.5 cell background, NS3-specific protease activity in lysates, 48 or 72 hours, read-out: Genotype 1a (pEC50 class) (converted)
Description: Assay 2: HCV Genotype 1a Replicon Assay
The HCV genotype 1a replicon cell line was obtained from Apath LLC (APC89; Huh7.5 cell background). This subgenomic replicon contains the N-terminus of the HCV core protein fused to the neomycin-resistance selectable marker. The EMCV IRES lies downstream and drives expression of the non-structural proteins NS3-NS5B. Compound potencies were determined using the NS3-specific protease activity in lysates as a measurement of compound inhibition of replicon levels.
Cells were grown at 37° C. in a 5% CO2 humidified incubator in DMEM (Invitrogen) with 10% FBS (HyClone), 1×NEAA (Invitrogen), 1× Pen-Strep (Invitrogen), and 850 μg/mL G418 (Invitrogen). On day 1 of the assay, cells were plated at 15,000 cells/well in black 96-well tissue culture plates (Costar) in 200 μL media lacking G418. Four hours later, once the cells had adhered, the media was removed and replaced with media (no G418) containing dose-responses of test compounds. Compounds were initially diluted in DMSO and then diluted another 200× in media to bring the final DMSO concentration down to 0.5%. The cells were incubated with test compounds for 48 or 72 hours. At the end of the incubation period, media and compound were removed from the plates.
To determine the NS3-specific protease activity in lysates, the cells were lysed at room temperature in 50 μL/well of 50 mM Hepes pH 7.5, 150 mM NaCl, 15% Glycerol, 0.15% Triton X-100, 10 mM DTT for 20 minutes with shaking. 50 μL of an NS3/4a protease-specific FRET substrate (Anaspec RET SI Cat#22991) was then added to the wells at a final concentration of 15 μM. The plates were incubated at 37° C. for 20 minutes, which corresponds to a timepoint at which the protease activity is still in the linear phase. Protease activity was determined by measuring fluorescence (Excitation: 340 nm; Emission: 509 nm).
To analyze the data, the fluorescence was plotted vs. the compound concentration, and EC50 values were determined from a 4-parameter robust fit model using GraphPad Prism software.

SMILES	EC50 [nM]
COC(=O)N[C@H](C(=O)N1C[C@@H](C)C[C@H]1c1nc(-c2ccc(-c3cc(Cl)c(NC(=O)N4CCN(C5CCN(C(=O)C(C)(C)C)CC5)CC4)cc3OC(F)(F)F)cc2)c[nH]1)C(C)C [Example 4]	0.1 to 1
COC(=O)N[C@H](C(=O)N1C[C@@H](C)C[C@H]1c1nc(-c2ccc(-c3cc(Cl)c(NC(=O)N4CCN(C5CCN(C(=O)C6CCC6)CC5)CC4)cc3OC(F)(F)F)cc2)c[nH]1)C(C)C [Example 6]	0.1 to 1
COC(=O)N[C@H](C(=O)N1C[C@@H](C)C[C@H]1c1nc2c(ccc3cc(-c4ccc(NC(=O)N5CCN(C6CCN(C(=O)OC(C)(C)C)CC6)CC5)cc4OC(F)(F)F)ccc32)[nH]1)C(C)C [Example 6-2]	< 0.1
COC(=O)N[C@H](C(=O)N1[C@@H](C)CC[C@H]1c1nc(-c2ccc(-c3ccc(NC(=O)N4CCN(C5CCN(C(=O)C6CC6)CC5)CC4)cc3OC(F)(F)F)cc2)c[nH]1)C(C)C [Example 8-4]	0.1 to 1
COC(=O)N[C@H](C(=O)N1C[C@@H](OC)C[C@H]1c1nc(-c2ccc(-c3ccc(NC(=O)N4CCN(C5CCN(C(=O)C(C)(C)C)CC5)CC4)cc3OC(F)(F)F)cc2)c[nH]1)C(C)C [Example 5-1]	0.1 to 1
COC(=O)N[C@H](C(=O)N1C[C@@H](C)C[C@H]1c1nc2c(ccc3cc(-c4ccc(NC(=O)N5CCN(C6CCN(C(=O)OC(C)(C)C)CC6)CC5)cc4OC(F)(F)F)ccc32)[nH]1)C1CCOCC1 [Example 7-1]	< 0.1

same assay, conditions: Huh7.5 cell background, NS3-specific protease activity in lysates, 48 or 72 hours

SMILES	Genotype 1a (pEC50 class)
COC(=O)NC(C(=O)N1CCCC1c1nc(-c2ccc(-c3ccc(NC(=O)N4CCN(C5CCN(C(=O)C6CC6(C)C)CC5)C(C)C4)cc3OC(F)(F)F)cc2)c[nH]1)C(C)C (stereo not drawn) [Example 1-37]	B (B represents pEC50 between 8 and 9 (EC50 between 1 and 10 nM))
COC(=O)N[C@H](C(=O)N1CCC[C@H]1c1nc(-c2ccc(-c3cc(F)c(NC(=O)N4CCN(C5CCN(C(=O)[C@H]6CC6(C)C)CC5)CC4)cc3OC(F)(F)F)cc2)c[nH]1)C(C)C [Example 1-26]	C (C represents pEC50 between and 9 and about 10, (EC50 between 1 nM and 0.1 nM))
CCN(CC)[C@@H](C(=O)N1CCC(N2CCN(C(=O)Nc3ccc(-c4ccc(-c5c[nH]c([C@@H]6CCCN6C(=O)[C@@H](NC(=O)OC)C(C)C)n5)cc4)c(OC(F)(F)F)c3)CC2)CC1)C(C)C [Example 1-30]	A (A represents a pEC50 value between 6 and 8 (EC50 between 1 μM and 10 nM))
COC(=O)N[C@H](C(=O)N1C[C@@H](C)C[C@H]1c1nc(-c2ccc(-c3ccc(NC(=O)N4CCN(C5CCN(C(=O)C6CC6)CC5)CC4)cc3OC(F)(F)F)cc2)c(Cl)[nH]1)C(C)C [Example 2-26]	D (D represents pEC50>10 (EC50<0.1 nM))
COC(=O)N[C@H](C(=O)N1C[C@@H](C)C[C@H]1c1nc(-c2ccc(-c3cc(Cl)c(NC(=O)N4CCC(N5CCN(C(=O)C6CC6)[C@@H](C)C5)CC4)cc3OC(F)(F)F)cc2)c[nH]1)C(C)C [Example 4-5]	B (B represents pEC50 between 8 and 9 (EC50 between 1 and 10 nM))
CNC(=O)N1CCC(N2CCN(C(=O)Nc3ccc(-c4ccc(-c5c[nH]c([C@@H]6CCCN6C(=O)[C@@H](NC(=O)OC)C(C)C)n5)cc4)c(OC(F)(F)F)c3)CC2)CC1 [Example 1-24]	C (C represents pEC50 between and 9 and about 10, (EC50 between 1 nM and 0.1 nM))
COC(=O)N[C@H](C(=O)N1C[C@@H](C)C[C@H]1c1nc(-c2ccc(-c3cc(Cl)c(NC(=O)N4CCN(C5CCN(C(=O)OC(C)(C)C)CC5)CC4)cc3OC(F)(F)F)cc2)c[nH]1)C(C)C [Example 2-8]	C (C represents pEC50 between and 9 and about 10, (EC50 between 1 nM and 0.1 nM))
COC(=O)N[C@H](C(=O)N1C[C@@H](C)C[C@H]1c1nc(-c2ccc(-c3cc(Cl)c(NC(=O)N4CCN(C5CCN(C(=O)C6CC(C)(C)C6)CC5)CC4)cc3OC(F)(F)F)cc2)c[nH]1)C(C)C [Example 2-25]	B (B represents pEC50 between 8 and 9 (EC50 between 1 and 10 nM))
COC(=O)N[C@H](C(=O)N1CCC[C@H]1c1nc(-c2ccc(-c3cc(Cl)c(NC(=O)N4CCN(C5CCN(C(=O)OC(C)(C)C)CC5)CC4)cc3OC(F)(F)F)cc2)c[nH]1)C(C)C [Example 1-36]	C (C represents pEC50 between and 9 and about 10, (EC50 between 1 nM and 0.1 nM))
COC(=O)N[C@H](C(=O)N1CCC(N2CCN(C(=O)Nc3ccc(-c4ccc(-c5c[nH]c([C@@H]6CCCN6C(=O)[C@@H](NC(=O)OC)C(C)C)n5)cc4)c(OC(F)(F)F)c3)CC2)CC1)C(C)C [Example 1-29]	A (A represents a pEC50 value between 6 and 8 (EC50 between 1 μM and 10 nM))
[2H]C([2H])([2H])C1(C([2H])([2H])[2H])CC1C(=O)N1CCC(N2CCN(C(=O)Nc3cc(OC(F)(F)F)c(-c4ccc(-c5c[nH]c([C@@H]6C[C@H](C)CN6C(=O)[C@@H](NC(=O)OC)C(C)C)n5)cc4)cc3Cl)CC2)CC1 (stereo partly drawn) [Example 2-23]	C (C represents pEC50 between and 9 and about 10, (EC50 between 1 nM and 0.1 nM))
COC(=O)N[C@H](C(=O)N1C[C@@H](C)C[C@H]1c1nc(-c2ccc(-c3cc(F)c(NC(=O)N4CCC(N5CCN(C(=O)OC(C)(C)C)CC5)CC4)cc3OC(F)(F)F)cc2)c[nH]1)C(C)C [Example 4-6]	B (B represents pEC50 between 8 and 9 (EC50 between 1 and 10 nM))
COC(=O)N[C@H](C(=O)N1CCC[C@H]1c1nc(-c2ccc(-c3cc(F)c(NC(=O)N4CCN(C5CCN(C(=O)C6CC6)CC5)CC4)cc3OC(F)(F)F)cc2)c[nH]1)C(C)C [Example 1-28]	C (C represents pEC50 between and 9 and about 10, (EC50 between 1 nM and 0.1 nM))
COC(=O)N[C@H](C(=O)N1C[C@@H](OC)C[C@H]1c1nc(-c2ccc(-c3ccc(NC(=O)N4CCN(C5CCN(C(=O)[C@H]6CC6(C)C)CC5)CC4)cc3OC(F)(F)F)cc2)c[nH]1)C(C)C [Example 5-2]	C (C represents pEC50 between and 9 and about 10, (EC50 between 1 nM and 0.1 nM))
CNC(=O)N1CCC(N2CCN(C(=O)Nc3ccc(-c4ccc(-c5c[nH]c([C@@H]6CCCN6C(=O)[C@@H](NC(=O)OC)C(C)C)n5)cc4)cc3)CC2)CC1 [Example 1-7]	B (B represents pEC50 between 8 and 9 (EC50 between 1 and 10 nM))
COC(=O)N[C@H](C(=O)N1CCC[C@H]1c1nc(-c2ccc(-c3ccc(NC(=O)N4CCN(C5CCN(C(=O)c6c[nH]cn6)CC5)CC4)cc3OC(F)(F)F)cc2)c[nH]1)C(C)C [Example 1-23]	C (C represents pEC50 between and 9 and about 10, (EC50 between 1 nM and 0.1 nM))
COC(=O)N[C@H](C(=O)N1C[C@@H](C)C[C@H]1c1nc(-c2ccc(-c3cc(F)c(NC(=O)N4CCN(C5CCN(C(=O)C6CC6)CC5)CC4)cc3OC(F)(F)F)cc2)c[nH]1)C(C)C [Example 2-3]	D (D represents pEC50>10 (EC50<0.1 nM))
CNC(=O)N1CCC(N2CCN(C(=O)Nc3ccc(-c4ccc(-c5c[nH]c([C@@H]6C[C@H](C)CN6C(=O)[C@@H](NC(=O)OC)C(C)C)n5)cc4)c(OC(F)(F)F)c3)CC2)CC1 [Example 2-12]	C (C represents pEC50 between and 9 and about 10, (EC50 between 1 nM and 0.1 nM))
COC(=O)N[C@H](C(=O)N1C[C@@H](C)C[C@H]1c1nc(-c2ccc(-c3cc(F)c(NC(=O)N4CCN(C5CCN(C(=O)C6CC6(F)Cl)CC5)CC4)cc3OC(F)(F)F)cc2)c[nH]1)C(C)C (stereo partly drawn) [Example 2-14]	C (C represents pEC50 between and 9 and about 10, (EC50 between 1 nM and 0.1 nM))
[2H]C([2H])([2H])C1(C([2H])([2H])[2H])CC1C(=O)N1CCC(N2CCN(C(=O)Nc3ccc(-c4ccc(-c5nc([C@@H]6C[C@H](C)CN6C(=O)[C@@H](NC(=O)OC)C(C)C)[nH]c5Cl)cc4)c(OC(F)(F)F)c3)CC2)CC1 (stereo partly drawn) [Example 2-27]	D (D represents pEC50>10 (EC50<0.1 nM))
COC(=O)N[C@H](C(=O)N1CCC[C@H]1c1nc(-c2ccc(-c3ccc(NC(=O)N4CCN(C5CCN(C(=O)c6ncccn6)CC5)CC4)cc3OC(F)(F)F)cc2)c[nH]1)C(C)C [Example 1-21]	B (B represents pEC50 between 8 and 9 (EC50 between 1 and 10 nM))
COC(=O)N[C@H](C(=O)N1CCC[C@H]1c1nc(-c2ccc(-c3ccc(NC(=O)N4CCN(C5CCN(C(=O)OC)CC5)CC4)cc3)cc2)c[nH]1)C(C)C [Example 1-9]	B (B represents pEC50 between 8 and 9 (EC50 between 1 and 10 nM))
COC(=O)NC(C(=O)N1CCCC1c1nc(-c2ccc(-c3ccc(NC(=O)N4CCN(C5CCN(C(=O)OC(C)(C)C)CC5)C(C)C4)cc3OC(F)(F)F)cc2)c[nH]1)C(C)C (stereo not drawn) [Example 1-38]	B (B represents pEC50 between 8 and 9 (EC50 between 1 and 10 nM))
COC(=O)N[C@H](C(=O)N1CCC[C@H]1c1nc(-c2ccc(-c3ccc(NC(=O)N4CCC(N5CCN(C(=O)OC)CC5)CC4)cc3)cc2)c[nH]1)C(C)C [Example 3-6]	A (A represents a pEC50 value between 6 and 8 (EC50 between 1 μM and 10 nM))
